This note sets out measurements from patent publication US11690915.

The conditions of data set [1]: 18-membered ring.
The conditions of data set [2]: from CC(C)(CO)Cc1c(-c2ccnc(N3CCN(C(=O)OCc4ccccc4)CC3)c2)n(C(C)(C)C#N)c2ccc(-c3csc(C[C@H](NC(=O)OC(C)(C)C)C(=O)N4CCC[C@@H](C(=O)O)N4)n3)cc12; ester bond; 18-membered ring; EDC/HOBt/DIEA; DCM; 1.05 mM.

Where two headings read alike, the source gives them in different places.

Regarding `CCn1c(-c2cc(N3CCN(C(=O)OCc4ccccc4)CC3)cnc2[C@H](C)OC)c2c3cc(ccc31)-c1csc(n1)C[C@H](NC(=O)OC(C)(C)C)C(=O)N1CCC[C@H](N1)C(=O)OCC(C)(C)C2`, the ring closure, isolated yield in data set [1] (from CCn1c(-c2cc(N3CCN(C(=O)OCc4ccccc4)CC3)cnc2[C@H](C)OC)c(CC(C)(C)CO)c2cc(-c3csc(C[C@H](NC(=O)OC(C)(C)C)C(=O)N4CCC[C@@H](C(=O)O)N4)n3)ccc21, ester bond, EDC/HOBt/DIEA, MeCN, 10.3 mM, 25.0 °C) was found to be 54.8%.

`CC1(C)COC(=O)[C@@H]2CCCN(N2)C(=O)[C@@H](NC(=O)OC(C)(C)C)Cc2nc(cs2)-c2ccc3[nH]c(I)c(c3c2)C1` came in with a ring closure, isolated yield in data set [1] (from CC(C)(CO)Cc1c(I)[nH]c2ccc(-c3csc(C[C@H](NC(=O)OC(C)(C)C)C(=O)N4CCC[C@@H](C(=O)O)N4)n3)cc12, ester bond, EDC/HOBt/DIEA, DCM, 17.6 mM) of 45.9%.

The molecule `CO[C@@H](C)c1ncccc1-c1c2c3cc(ccc3n1CCOC1CCOCC1)-c1csc(n1)C[C@H](NC(=O)OC(C)(C)C)C(=O)N1CCC[C@H](N1)C(=O)OCC(C)(C)C2` displayed a ring closure, isolated yield in data set [1] (from CO[C@@H](C)c1ncccc1-c1c(CC(C)(C)CO)c2cc(-c3csc(C[C@H](NC(=O)OC(C)(C)C)C(=O)N4CCC[C@@H](C(=O)O)N4)n3)ccc2n1CCOC1CCOCC1, ester bond, EDC/HOBt/DIEA, DCM, 7.0 mM) of 68%.

The molecule `CC1(C)COC(=O)[C@@H]2CCCN(N2)C(=O)[C@@H](NC(=O)OC(C)(C)C)Cc2nc(cs2)-c2ccc3c(c2)c(c(-c2ccnc(N4CCN(C(=O)OCc5ccccc5)CC4)c2)n3C(C)(C)C#N)C1` returned a ring closure, crude yield in data set [2] of 52%.

Take `CCn1c(-c2cccnc2[C@H](C)OC)c2c3cc(ccc31)-c1csc(n1)[C@@H](OCC(F)F)[C@H](NC(=O)OC(C)(C)C)C(=O)N1CCC[C@H](N1)C(=O)OCC(C)(C)C2`: the ring closure, isolated yield in data set [1] (from CCn1c(-c2cccnc2[C@H](C)OC)c(CC(C)(C)COC(=O)[C@@H]2CCCN(C(=O)[C@@H](NC(=O)OC(C)(C)C)[C@H](OCC(F)F)c3nc(Br)cs3)N2)c2cc(B3OC(C)(C)C(C)(C)O3)ccc21, cc_pd bond, Pd(DtBPF)Cl2/K3PO4, toluene/1,4-dioxane/H2O 3:1:1, 10.0 mM, 60.0 °C, 1.0 h) worked out at 59%.
